Experiments:
[1] = Phase I clinical trial, pharmacokinetics (serum, HPLC, 2-compartment model); assay type: in vivo, human patients; design: AUC: unit not given here
Procedure: AHVB blood serum concentrations were measured at 0, 0.33, 0.67, 1, 1.25, 1.5, 2, 4, 6, 8, 12, 24, 48, and 72 hrs after the start of each infusion. […] The serum extracts were assayed using high pressure liquid chromatography (HPLC) and were fit to a 2-compartment pharmacokinetic model for determination of pharmacokinetic parameters (see Table 5).
There appears to be no significant change in clearance observed between smaller and larger doses (p>0.2 by linear regression). […] Similarly, AUC appeared to increase linearly with dose (r^2=0.82, p<0.05) (FIG. 12).

[2] = Toxicological studies in dogs; assay type: in vivo

With `CCC1=C[C@H]2CN(CCc3c([nH]c4ccccc34)[C@@](C(=O)OC)(c3cc4c(cc3OC)N(C)[C@H]3[C@@](O)(C(=O)OC)[C@H](OC(C)=O)[C@]5(CC)C=CCN6CC[C@]43[C@@H]65)C2)C1` [AHVB, 3′,4′-anhydrovinblastine] the “pharmacokinetics, dose linearity” value ([1]; 2.5-30 mg/m^2, 1 hour infusion) was “linear”, the T1/2 al ([1]; All Data, N 20, Max) was 23.6 min and the T1/2 be ([1]; All Data, N 20, Max) was 63.10 h. The “T1/2 al (alpha half-life)” value ([1]; All Data, N 20, Mean) was 11.4 min, the “T1/2 be (beta half-life)” value ([1]; All Data, N 20, Mean) was 20.8 h and the T1/2 al ([1]; All Data, N 20, Median) was 10.2 min. It also gave a T1/2 be ([1]; All Data, N 20, Median) of 17.60 h, a T1/2 al ([1]; All Data, N 20, Min) of 4.2 min and a T1/2 be ([1]; All Data, N 20, Min) of 6.63 h. For the same compound, the A ([1]; dose 2.5 mg/m^2, N 1, Value) was 134.71 ng/mL, the AUC ([1]; dose 2.5 mg/m^2, N 1, Value) was 71.64 and the B ([1]; dose 2.5 mg/m^2, N 1, Value) was 5.03 ng/mL. The Cmax ([1]; dose 2.5 mg/m^2, N 1, Value) was 28.23 ng/mL, the T1/2 al ([1]; dose 2.5 mg/m^2, N 1, Value) was 7.2 min and the T1/2 be ([1]; dose 2.5 mg/m^2, N 1, Value) was 6.63 h. For the same compound, the A ([1]; dose 5 mg/m^2, N 3, Max) was 531.52 ng/mL, the AUC ([1]; dose 5 mg/m^2, N 3, Max) was 793.39 and the B ([1]; dose 5 mg/m^2, N 3, Max) was 9.73 ng/mL. For the same compound, the Cmax ([1]; dose 5 mg/m^2, N 3, Max) was 62.40 ng/mL, the T1/2 al ([1]; dose 5 mg/m^2, N 3, Max) was 10.2 min and the T1/2 be ([1]; dose 5 mg/m^2, N 3, Max) was 63.13 h. For the same compound, the A ([1]; dose 5 mg/m^2, N 3, Mean) was 281.82 ng/mL, the AUC ([1]; dose 5 mg/m^2, N 3, Mean) was 571.75 and the B ([1]; dose 5 mg/m^2, N 3, Mean) was 8.04 ng/mL. It also gave a Cmax ([1]; dose 5 mg/m^2, N 3, Mean) of 51.37 ng/mL, a T1/2 al ([1]; dose 5 mg/m^2, N 3, Mean) of 8.4 min and a T1/2 be ([1]; dose 5 mg/m^2, N 3, Mean) of 44.36 h. The A ([1]; dose 5 mg/m^2, N 3, Median) was 178.39 ng/mL, the AUC ([1]; dose 5 mg/m^2, N 3, Median) was 639.67 and the B ([1]; dose 5 mg/m^2, N 3, Median) was 8.11 ng/mL. The Cmax ([1]; dose 5 mg/m^2, N 3, Median) was 53.07 ng/mL, the T1/2 al ([1]; dose 5 mg/m^2, N 3, Median) was 10.2 min and the T1/2 be ([1]; dose 5 mg/m^2, N 3, Median) was 42.41 h. The A ([1]; dose 5 mg/m^2, N 3, Min) was 135.55 ng/mL, the AUC ([1]; dose 5 mg/m^2, N 3, Min) was 282.20 and the B ([1]; dose 5 mg/m^2, N 3, Min) was 6.27 ng/mL. The Cmax ([1]; dose 5 mg/m^2, N 3, Min) was 38.65 ng/mL, the T1/2 al ([1]; dose 5 mg/m^2, N 3, Min) was 4.2 min and the T1/2 be ([1]; dose 5 mg/m^2, N 3, Min) was 27.54 h. The A ([1]; dose 10 mg/m^2, N 1, Value) was 109.85 ng/mL, the AUC ([1]; dose 10 mg/m^2, N 1, Value) was 247.19 and the B ([1]; dose 10 mg/m^2, N 1, Value) was 11.49 ng/mL. The Cmax ([1]; dose 10 mg/m^2, N 1, Value) was 48.57 ng/mL, the T1/2 al ([1]; dose 10 mg/m^2, N 1, Value) was 15 min and the T1/2 be ([1]; dose 10 mg/m^2, N 1, Value) was 12.50 h. It also gave an A ([1]; dose 16.5 mg/m^2, N 5, Max) of 816.42 ng/mL, an AUC ([1]; dose 16.5 mg/m^2, N 5, Max) of 1791.22 and a B ([1]; dose 16.5 mg/m^2, N 5, Max) of 34.16 ng/mL. The Cmax ([1]; dose 16.5 mg/m^2, N 5, Max) was 231.52 ng/mL, the T1/2 al ([1]; dose 16.5 mg/m^2, N 5, Max) was 23.4 min and the T1/2 be ([1]; dose 16.5 mg/m^2, N 5, Max) was 33.52 h. For the same compound, the A ([1]; dose 16.5 mg/m^2, N 5, Mean) was 509.47 ng/mL, the AUC ([1]; dose 16.5 mg/m^2, N 5, Mean) was 824.58 and the B ([1]; dose 16.5 mg/m^2, N 5, Mean) was 22.50 ng/mL. It also gave a Cmax ([1]; dose 16.5 mg/m^2, N 5, Mean) of 163.03 ng/mL, a T1/2 al ([1]; dose 16.5 mg/m^2, N 5, Mean) of 13.2 min and a T1/2 be ([1]; dose 16.5 mg/m^2, N 5, Mean) of 21.35 h. The A ([1]; dose 16.5 mg/m^2, N 5, Median) was 478.82 ng/mL, the AUC ([1]; dose 16.5 mg/m^2, N 5, Median) was 541.21 and the B ([1]; dose 16.5 mg/m^2, N 5, Median) was 21.87 ng/mL. The Cmax ([1]; dose 16.5 mg/m^2, N 5, Median) was 171.48 ng/mL, the T1/2 al ([1]; dose 16.5 mg/m^2, N 5, Median) was 12 min and the T1/2 be ([1]; dose 16.5 mg/m^2, N 5, Median) was 21.82 h. For the same compound, the A ([1]; dose 16.5 mg/m^2, N 5, Min) was 263.49 ng/mL, the AUC ([1]; dose 16.5 mg/m^2, N 5, Min) was 511.26 and the B ([1]; dose 16.5 mg/m^2, N 5, Min) was 6.64 ng/mL. The Cmax ([1]; dose 16.5 mg/m^2, N 5, Min) was 96.35 ng/mL, the T1/2 al ([1]; dose 16.5 mg/m^2, N 5, Min) was 7.8 min and the T1/2 be ([1]; dose 16.5 mg/m^2, N 5, Min) was 8.21 h. For the same compound, the A ([1]; dose 21 mg/m^2, N 3, Max) was 1197.78 ng/mL, the AUC ([1]; dose 21 mg/m^2, N 3, Max) was 1402.11 and the B ([1]; dose 21 mg/m^2, N 3, Max) was 28.54 ng/mL. The Cmax ([1]; dose 21 mg/m^2, N 3, Max) was 340.46 ng/mL, the T1/2 al ([1]; dose 21 mg/m^2, N 3, Max) was 23.4 min and the T1/2 be ([1]; dose 21 mg/m^2, N 3, Max) was 30.50 h. For the same compound, the A ([1]; dose 21 mg/m^2, N 3, Mean) was 774.37 ng/mL, the AUC ([1]; dose 21 mg/m^2, N 3, Mean) was 1094.91 and the B ([1]; dose 21 mg/m^2, N 3, Mean) was 25.92 ng/mL. The Cmax ([1]; dose 21 mg/m^2, N 3, Mean) was 257.21 ng/mL, the T1/2 al ([1]; dose 21 mg/m^2, N 3, Mean) was 15.6 min and the T1/2 be ([1]; dose 21 mg/m^2, N 3, Mean) was 22.88 h. For the same compound, the A ([1]; dose 21 mg/m^2, N 3, Median) was 802.43 ng/mL, the AUC ([1]; dose 21 mg/m^2, N 3, Median) was 964.03 and the B ([1]; dose 21 mg/m^2, N 3, Median) was 24.72 ng/mL. The Cmax ([1]; dose 21 mg/m^2, N 3, Median) was 252.10 ng/mL, the T1/2 al ([1]; dose 21 mg/m^2, N 3, Median) was 12 min and the T1/2 be ([1]; dose 21 mg/m^2, N 3, Median) was 19.15 h. The A ([1]; dose 21 mg/m^2, N 3, Min) was 322.90 ng/mL, the AUC ([1]; dose 21 mg/m^2, N 3, Min) was 918.58 and the B ([1]; dose 21 mg/m^2, N 3, Min) was 24.50 ng/mL. The Cmax ([1]; dose 21 mg/m^2, N 3, Min) was 179.07 ng/mL, the T1/2 al ([1]; dose 21 mg/m^2, N 3, Min) was 11.4 min and the T1/2 be ([1]; dose 21 mg/m^2, N 3, Min) was 19.00 h. The A ([1]; dose 25 mg/m^2, N 6, Max) was 1952.78 ng/mL, the AUC ([1]; dose 25 mg/m^2, N 6, Max) was 1202.01 and the B ([1]; dose 25 mg/m^2, N 6, Max) was 48.76 ng/mL. The Cmax ([1]; dose 25 mg/m^2, N 6, Max) was 368.79 ng/mL, the T1/2 al ([1]; dose 25 mg/m^2, N 6, Max) was 21.6 min and the T1/2 be ([1]; dose 25 mg/m^2, N 6, Max) was 16.29 h. For the same compound, the A ([1]; dose 25 mg/m^2, N 6, Mean) was 1122.91 ng/mL, the AUC ([1]; dose 25 mg/m^2, N 6, Mean) was 764.83 and the B ([1]; dose 25 mg/m^2, N 6, Mean) was 34.51 ng/mL. For the same compound, the Cmax ([1]; dose 25 mg/m^2, N 6, Mean) was 273.43 ng/mL, the T1/2 al ([1]; dose 25 mg/m^2, N 6, Mean) was 10.8 min and the T1/2 be ([1]; dose 25 mg/m^2, N 6, Mean) was 10.68 h. For the same compound, the A ([1]; dose 25 mg/m^2, N 6, Median) was 1062.6 ng/mL, the AUC ([1]; dose 25 mg/m^2, N 6, Median) was 750.85 and the B ([1]; dose 25 mg/m^2, N 6, Median) was 35.06 ng/mL. It also gave a Cmax ([1]; dose 25 mg/m^2, N 6, Median) of 287.71 ng/mL, a T1/2 al ([1]; dose 25 mg/m^2, N 6, Median) of 9.6 min and a T1/2 be ([1]; dose 25 mg/m^2, N 6, Median) of 10.54 h. The A ([1]; dose 25 mg/m^2, N 6, Min) was 379.79 ng/mL, the AUC ([1]; dose 25 mg/m^2, N 6, Min) was 436.85 and the B ([1]; dose 25 mg/m^2, N 6, Min) was 20.78 ng/mL. It also gave a Cmax ([1]; dose 25 mg/m^2, N 6, Min) of 108.52 ng/mL, a T1/2 al ([1]; dose 25 mg/m^2, N 6, Min) of 6.6 min and a T1/2 be ([1]; dose 25 mg/m^2, N 6, Min) of 6.73 h. The A ([1]; dose 30 mg/m^2, N 1, Value) was 3559.02 ng/mL, the AUC ([1]; dose 30 mg/m^2, N 1, Value) was 1797.92 and the B ([1]; dose 30 mg/m^2, N 1, Value) was 36.71 ng/mL. The Cmax ([1]; dose 30 mg/m^2, N 1, Value) was 571.08 ng/mL, the T1/2 al ([1]; dose 30 mg/m^2, N 1, Value) was 6 min and the T1/2 be ([1]; dose 30 mg/m^2, N 1, Value) was 23.83 h. The toxicities [2] was “reversible myelosupression and gastrointestinal toxicities”.

Reference: patent US20030162803A1, “Anhydrovinblastine for the treatment of cancer” (priority 1997, published 2003)
